{
  "source": "patent US20220098228A1",
  "about": "“METHODS AND COMPOSITIONS FOR IMPROVING THE IMMUNE SYSTEM AND PROVIDING IMMUNO-PROTECTION” (Natreon, Inc., priority 2020, published 2022)",
  "key": {"[1]": {"system": "peritoneal macrophages", "experiment": "NBT reduction of peritoneal macrophages (Example III)", "type": "in vivo, Swiss albino mice", "conditions": "for NBT reduction compared with vehicle control: cyclophosphamide, 3-OH-DBP 2 and 10 mg/kg, combined 12 mg/kg", "protocol": "(§1) Male and female Swiss albino mice (n=8; 4 from each gender) weighing approximately 25±5 g, were obtained from National Research Institute of Ayurveda for Drug Development (Govt. of India), Kolkata, and were housed in polypropylene cages at 22±3° C., relative air humidity of 45 to 55%, with 12.00 h light & dark cycle (lighting on from 6:00 AM to 6:00 PM). […] The mice were acclimatized for one week in the laboratory conditions, before being used in the experiment. All experiments were conducted between 10.00 h and 14.00 h. Principles of laboratory animal care (NIH publication no. 85-23, revised 1985) was followed.\n(§2) Cyclophosphamide was dissolved in distilled water and the mice were administered a single exposure (250 mg/kg, i.p.) on day 1.\n(§3) 3-OH-DBP, 3,8-(OH)2-DBP, and combined 3-OH-DBP+3,8-(OH)2-DBP were administered once daily for 7 days starting from day 1. Following 7 days of treatment the mice were anaesthetized and sacrificed under anaesthesia followed by collection of peritoneal macrophages and spleen (for splenocyte isolation).\n(§4) Swiss albino mice were randomly divided into 8 Groups (n=8; 4 from each gender). […] (2:10) (12 mg/kg b.w., p.o.), Group VI mice were administered 3-OH-DBP (10 mg/kg b.w., p.o.), Group VII mice were administered 3,8-(OH)2-DBP (50 mg/kg b.w., p.o.), Group VIII mice were administered [3-OH-DBP+3,8-(OH)2-DBP] (10:50) (60 mg/kg b.w., p.o.).\n(§5) All the animals were sacrificed under ether anesthesia and peritoneal macrophages were lavaged using ice cold phosphate buffer saline (PBS: 0.15 M NaCl; pH: 7.4). After centrifugation (3000 rpm×10 min) at 4° C., pellets were re-suspended in PBS and cell viability was confirmed by trypan blue exclusion assay.\nPreparation of NBT solution: 0.2% NBT (nitroblue tetrazolium) in PBS (pH 7.4), 5% dextrose and HBSS. These three solutions were mixed in 6:2:4 ratios.\n0.5 ml of NBT solution was added to 0.5 ml of peritoneal macrophages (1×10^6 cells/ml) in micro-centrifuge tube. This mixture was incubated at 37° C. for 2 hours. The cell suspension was centrifuged at 2000 rpm for 10 minutes. Supernatants were discarded and pellets were re-suspended in 1 ml of DMSO. The tubes were kept in boiling water bath for 10 minutes and then cooled and centrifuged at 2000 rpm for 10 minutes. The supernatants were collected and absorbance was measured at 515 nm.\n(§6) Results were expressed in terms of mean±SEM (n=8; 4 from each gender). Data were subjected to one way ANOVA followed by Tukey's test using GraphPad Prism 4.0 software to establish statistical significance (*p<0.05, **p<0.01, ***p<0.001, where * refers to comparison with Group I vehicle control; #p<0.05, ##p<0.01, ###p<0.001, where #refers to comparison with Group II cyclophosphamide administration; ^ap<0.05, ^aap<0.01, ^aap<0.01, where a refers to comparison of Day 7 with Day 0)."}, "[2]": {"system": "peritoneal macrophages", "experiment": "Peritoneal macrophage viability, trypan blue exclusion (Example III)", "type": "in vivo, Swiss albino mice", "conditions": "for % Viability Day 7, peritoneal macrophage viability: cyclophosphamide 250 mg/kg i.p. alone", "protocol": "as §1, §2, §3, §4, §5, §6"}, "[3]": {"system": "splenocytes", "experiment": "Splenocyte viability, trypan blue exclusion (Example III)", "type": "in vivo, Swiss albino mice", "conditions": "for % Viability Day7, splenocyte viability: Day 7, cyclophosphamide 250 mg/kg i.p. alone", "protocol": "as §1, §2, §3, §4\nSpleens were collected and single cell suspension was prepared by mincing and tapping the spleen fragments on stainless steel 200-mesh in ice cold phosphate buffer saline (PBS: 0.15M NaCl; pH: 7.4). Cell suspensions were centrifuged at 2000 rpm for 10 minutes.\nas §6"}, "[4]": {"system": "peritoneal macrophages", "experiment": "NBT reduction assay in peritoneal macrophages, cyclophosphamide-induced immunosuppression (Example II)", "type": "in vivo, Swiss albino mice", "protocol": "(§7) The mice were acclimatized for one week in the laboratory conditions, before being used in the experiment. All experiments were conducted between 10.00 hr and 14.00 hr. Principles of laboratory animal care (NIH publication no. 85-23, revised 1985) were followed.\n(§8) All test compounds (DBPs and DBP glycosides) were suspended in 0.3% of CMC (Carboxymethyl Cellulose) solutions of distilled water and were administered orally for 7 days by using an intubation canula. The volume of dose was 100 μl/10 g body weight. Cyclophosphamide was dissolved in distilled water and was injected (250 mg/kg, i.p.) on day one and volume of dose was 100 μl/10 g body weight. Control animals received equivalent volume of the vehicles CMC (0.3%) solutions only.\nOn day seven all the animals were sacrificed under ether anesthesia and peritoneal macrophages were lavaged using ice cold phosphate buffer saline (PBS: 0.15M NaCl pH-7.4). After centrifugation (3000 rpm×10 min) at 4° C. the pellet was re-suspended in PBS and cell viability was confirmed by trypan blue exclusion method. (Bala A, Haldar P K, Kar B, Naskar S and Mazumder U K, “Carbon tetrachloride: A hepatotoxin causes oxidative stress in murine peritoneal macrophage and peripheral blood lymphocyte cells” Immunopharmacol. and Immunotoxicol. 34(1): 157-162 (2012)).\nPreparation of NBT solution: 0.2% NBT (nitroblue tetrazolium) in PB (Phosphate Buffer, pH 7.4), 5% dextrose and HBSS (Hank's balanced salt solution). The three solutions were mixed in 6:2:4 ratios. (Saxena A K, Singh K P, Srivastava S N, Shukla L J and Shanker R., “Immunomodulating effects of caffeine in rodents” Ind J Exptl Biol. 22: 298-301 (1984)).\nMethod: 0.5 ml of NBT solution was added to 0.5 ml of peritoneal macrophages (1×10^6 cells/ml) in a micro-centrifuge tube. This mixture was incubated at 37° C. for 45 minutes. The cell suspension was centrifuged at 1500 rpm for 10 minutes. Supernatant was discarded and pellet was re-suspended in 2 ml of DMSO. The tubes were kept in a boiling water bath for 10 minutes. The tubes were again centrifuged at 1500 rpm for 10 minutes. The supernatant was collected, and absorbance was measured at 515 nm."}, "[5]": {"conditions": "for Body Weight (gm) Day 0 / Feed Intake (gm) Day 0 / Water Intake (ml) Day 0 / Body Weight (gm) Day 7 / Feed Intake (gm) Day 7 / Water Intake (ml) Day 7: cyclophosphamide 250 mg/kg i.p. alone; for feed intake compared to vehicle control: 3,8-(OH)2-DBP 50 mg/kg", "protocol": "as §1, §2, §3, §4, §6"}, "[6]": {"system": "splenocytes", "experiment": "Cell viability of splenocytes, trypan blue exclusion, cyclophosphamide-induced immunosuppression (Example II)", "type": "in vivo, Swiss albino mice", "protocol": "as §7, §8\nSpleen was collected. Single cell suspension was prepared by mincing and tapping the spleen fragments on stainless steel 200-mesh in ice cold phosphate buffer saline (PBS: 0.15M NaCl pH 7.4). Cell suspension was centrifuged at 2000 rpm for 10 minutes. The pellet was re-suspended in PBS and cell viability was confirmed by trypan blue exclusion method."}, "[7]": {"conditions": "female mice, cyclophosphamide alone"}, "[8]": {"conditions": "cyclophosphamide 250 mg/kg i.p. day one, alone, day 7, Mean ± SD, n = 6"}},
  "note": "Like-named read-outs stand apart in the source and are kept apart here. Marks after values point to notes of the source that are not given here.",
  "data": [
    {"compound": "O=P1(N(CCCl)CCCl)NCCCO1", "note": "(stereo not shown) [Cyclophosphamide, reference compound]", "values": [
      {"measurement": "O.D. (515 nm) Day 7, NBT reduction of peritoneal macrophages", "setting": "[1]; female mice, Day 7, cyclophosphamide 250 mg/kg i.p. alone", "value": "0.119 ± 0.005***"},
      {"measurement": "NBT reduction compared with vehicle control", "setting": "[1]; female mice, 3,8-(OH)2-DBP 10 and 50 mg/kg", "value": "significantly (p<0.05, p<0.01, p<0.001) decreased"},
      {"measurement": "O.D (515 nm) Day 7, NBT reduction of peritoneal macrophages", "setting": "[1]; male mice, Day 7, cyclophosphamide 250 mg/kg i.p. alone", "value": "0.209 ± 0.02419***"},
      {"measurement": "NBT reduction compared with vehicle control", "setting": "[1]; male mice, 3,8-(OH)2-DBP 10 mg/kg", "value": "significantly (p<0.01, p<0.001) decreased"},
      {"measurement": "% Viability Day 7, peritoneal macrophage viability", "setting": "[2]; female mice", "value": "58.19 ± 0.60** %"},
      {"measurement": "peritoneal macrophage viability compared with vehicle control", "setting": "[2]; [7]", "value": "significantly (p<0.05) decreased"},
      {"measurement": "% Viability Day 7, peritoneal macrophage viability", "setting": "[2]; male mice", "value": "55.72 ± 2.18* %"},
      {"measurement": "peritoneal macrophage viability compared with vehicle control", "setting": "[2]; male mice, cyclophosphamide, 3-OH-DBP 2 mg/kg, 3,8-(OH)2-DBP 10 mg/kg", "value": "significantly (p<0.05) decreased"},
      {"measurement": "% Viability Day7, splenocyte viability", "setting": "[3]; female mice", "value": "79.70 ± 1.58*** %"},
      {"measurement": "splenocyte viability compared with vehicle control", "setting": "[3]; [7]", "value": "significantly (p<0.001) decreased"},
      {"measurement": "% Viability Day7, splenocyte viability", "setting": "[3]; male mice", "value": "70.22 ± 0.98*** %"},
      {"measurement": "splenocyte viability compared with vehicle control", "setting": "[3]; male mice, cyclophosphamide, 2 mg/kg 3-OH-DBP, 10 mg/kg 3,8-(OH)2-DBP, 12 mg/kg combined", "value": "significantly (p<0.001) decreased"},
      {"measurement": "OD (515 nm), NBT reduction assay in peritoneal macrophages", "setting": "[4]; [8]", "value": "0.117 ± 0.015"},
      {"measurement": "NBT reduction capacity of peritoneal macrophages", "setting": "[4]; cyclophosphamide alone vs CMC control", "value": "significant (p<0.001) decrease"},
      {"measurement": "Body Weight (gm) Day 0", "setting": "[5]; female mice", "value": "23.00 ± 1.89", "unit": "gm"},
      {"measurement": "Feed Intake (gm) Day 0", "setting": "[5]; female mice", "value": "28.50 ± 0.96", "unit": "gm"},
      {"measurement": "Water Intake (ml) Day 0", "setting": "[5]; female mice", "value": "3.620 ± 0.16", "unit": "mL"},
      {"measurement": "Body Weight (gm) Day 7", "setting": "[5]; female mice", "value": "21.75 ± 0.63", "unit": "gm"},
      {"measurement": "Feed Intake (gm) Day 7", "setting": "[5]; female mice", "value": "24.71 ± 0.41^a gm"},
      {"measurement": "Water Intake (ml) Day 7", "setting": "[5]; female mice", "value": "6.425 ± 0.48", "unit": "mL"},
      {"measurement": "feed intake compared to vehicle control", "setting": "[5]; female mice, cyclophosphamide, 3-OH-DBP 10 mg/kg", "value": "significantly (p<0.05, p<0.01) decreased"},
      {"measurement": "Body Weight (gm) Day 0", "setting": "[5]; male mice", "value": "30.75 ± 1.89", "unit": "gm"},
      {"measurement": "Feed Intake (gm) Day 0", "setting": "[5]; male mice", "value": "28.50 ± 0.96", "unit": "gm"},
      {"measurement": "Water Intake (ml) Day 0", "setting": "[5]; male mice", "value": "6.125 ± 0.16", "unit": "mL"},
      {"measurement": "Body Weight (gm) Day 7", "setting": "[5]; male mice", "value": "30.50 ± 2.18", "unit": "gm"},
      {"measurement": "Feed Intake (gm) Day 7", "setting": "[5]; male mice", "value": "26.81 ± 0.86^a gm"},
      {"measurement": "Water Intake (ml) Day 7", "setting": "[5]; male mice", "value": "5.863 ± 0.15*,## ml"},
      {"measurement": "feed intake compared to vehicle control", "setting": "[5]; male mice, cyclophosphamide, 3-OH-DBP 10 mg/kg", "value": "significantly (p<0.05, p<0.01) decreased"},
      {"measurement": "feed intake Day 7 in comparison to Day 0", "setting": "[5]; male mice, cyclophosphamide, 3-OH-DBP 10 mg/kg, 3,8-(OH)2-DBP 10 and 50 mg/kg", "value": "significantly (p<0.05, p<0.01) decreased"},
      {"measurement": "% Cell Viability of splenocytes", "setting": "[6]; [8]", "value": "51.12 ± 4.69", "unit": "%"},
      {"measurement": "splenocyte viability", "setting": "[6]; cyclophosphamide alone vs control", "value": "significantly (p<0.01) decreased"}
    ]}
  ]
}
